Results from paper PMC5656653, “Evaluation of Ga-DOTA-(D-Asp)n as bone imaging agents: D-aspartic acid peptides as carriers to bone” (Scientific Reports, 2017).
Values belong to the compound of their own block, whether it stands above or below them. Where a SMILES comes first, the peptide text is derived from it. The star is where a group is joined. DOTA = O=C(O)CN1CCN(CC(=O)O)CCN(CC(=O)*)CCN(CC(=O)O)CC1

Experiments:
[1] = Urine analyses by RP-HPLC after i.v. injection; assay type: in vivo; conditions: mice, urine from bladder at 1 h post-injection
Protocol: ^67Ga-DOTA-(L-Asp)14 was prepared according to a method described previously. ^67Ga-DOTA-(L-Asp)14 or ^67Ga-DOTA-(D-Asp)14 solution (370 kBq / 200 μL) was intravenously injected to 6-week-old male ddY mice. At 1 h post-injection, mice were sacrificed and their […] were taken from the bladders. After ultrafiltration (Microcon-30, Merck KGaA), the filtrate samples were analyzed by RP-HPLC at a flow rate of 1 mL/min with a gradient mobile phase from water containing 0.1% TFA to 20% methanol in water containing 0.1% TFA for 20 min.

[2] = design: method as in PMID 24391942; conditions: normal mice; cited from earlier work
[3] = Biodistribution experiments in normal mice after i.v. injection; assay type: in vivo; conditions: for tissue uptake dose at 10 min / tissue uptake dose at 1 h / tissue uptake dose at 3 h: male, ddY, total radioactivity, Biodistribution of radioactivity; for Biodistribution of radioactivity, Blood / Biodistribution of radioactivity, Bone (Femur) / Biodistribution of radioactivity, Brain / Biodistribution of radioactivity, Heart / Biodistribution of radioactivity, Kidney / Biodistribution of radioactivity, Large-intestine / Biodistribution of radioactivity, Liver / Biodistribution of radioactivity, Lung / Biodistribution of radioactivity, Muscle / Biodistribution of radioactivity, Pancreas / Biodistribution of radioactivity, Small-intestine / Biodistribution of radioactivity, Spleen / F/B ratio (Femur:blood ratio) / Biodistribution of radioactivity, Stomach: mice, mean (SD); for Biodistribution of radioactivity, Stomach: footnote b
How it was run: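 Male ddY mice (6 weeks, 27–32 g) received tracer i.v. (37–740 kBq/100 μL); 4–5 per group sacrificed at 10, 60 and 180 min. Weighed tissues and whole left femur (bone) gamma-counted with background and decay correction.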

[4] = mouse, in vivo, iv, Bone (Femur)
[5] = mouse, in vivo, iv, Large-intestine
[6] = mouse, in vivo, iv, Small-intestine

Compound: O=C(O)C[C@H](NC(=O)[C@H](CC(=O)O)NC(=O)[C@H](CC(=O)O)NC(=O)[C@H](CC(=O)O)NC(=O)[C@H](CC(=O)O)NC(=O)[C@H](CC(=O)O)NC(=O)[C@H](CC(=O)O)NC(=O)[C@H](CC(=O)O)NC(=O)[C@H](CC(=O)O)NC(=O)[C@H](CC(=O)O)NC(=O)[C@H](CC(=O)O)NC(=O)[C@H](CC(=O)O)NC(=O)[C@H](CC(=O)O)NC(=O)[C@H](CC(=O)O)NC(=O)CN1CCN(CC(=O)O)CCN(CC(=O)O)CCN(CC(=O)O)CC1)C(=O)O [^67Ga-DOTA-(L-Asp)14, metal not drawn] ({DOTA}-DDDDDDDDDDDDDD-OH)
- Ratio of the intact complex in urine [1]: 55.0 ± 13.9%
- Accumulation in bone (in words) [2]: high accumulation in bone
- Blood clearance (in words) [2]: rapid blood clearance

- tissue uptake dose at 10 min ([3]; mouse, in vivo, iv, Blood): 1.85 %ID
- tissue uptake dose at 1 h ([3]; mouse, in vivo, iv, Blood): 0.12 %ID
- tissue uptake dose at 3 h ([3]; mouse, in vivo, iv, Blood): 0.05 %ID
- tissue uptake dose at 10 min [3, 4]: 9.81 %ID
- tissue uptake dose at 1 h [3, 4]: 11.1 %ID
- tissue uptake dose at 3 h [3, 4]: 10.9 %ID
- tissue uptake dose at 10 min ([3]; mouse, in vivo, iv, Brain): 0.05 %ID
- tissue uptake dose at 1 h ([3]; mouse, in vivo, iv, Brain): 0.01 %ID
- tissue uptake dose at 3 h ([3]; mouse, in vivo, iv, Brain): 0.03 %ID
- tissue uptake dose at 10 min ([3]; mouse, in vivo, iv, Heart): 0.67 %ID
- tissue uptake dose at 1 h ([3]; mouse, in vivo, iv, Heart): 0.1 %ID
- tissue uptake dose at 3 h ([3]; mouse, in vivo, iv, Heart): 0.06 %ID
- tissue uptake dose at 10 min ([3]; mouse, in vivo, iv, Kidney): 22.1 %ID
- tissue uptake dose at 1 h ([3]; mouse, in vivo, iv, Kidney): 26.4 %ID
- tissue uptake dose at 3 h ([3]; mouse, in vivo, iv, Kidney): 25.1 %ID
- tissue uptake dose at 10 min [3, 5]: 0.37 %ID
- tissue uptake dose at 1 h [3, 5]: 0.07 %ID
- tissue uptake dose at 3 h [3, 5]: 0.23 %ID
- tissue uptake dose at 10 min ([3]; mouse, in vivo, iv, Liver): 0.47 %ID
- tissue uptake dose at 1 h ([3]; mouse, in vivo, iv, Liver): 0.13 %ID
- tissue uptake dose at 3 h ([3]; mouse, in vivo, iv, Liver): 0.14 %ID
- tissue uptake dose at 10 min ([3]; mouse, in vivo, iv, Lung): 1.57 %ID
- tissue uptake dose at 1 h ([3]; mouse, in vivo, iv, Lung): 0.13 %ID
- tissue uptake dose at 3 h ([3]; mouse, in vivo, iv, Lung): 0.06 %ID
- tissue uptake dose at 10 min ([3]; mouse, in vivo, iv, Muscle): 0.63 %ID
- tissue uptake dose at 1 h ([3]; mouse, in vivo, iv, Muscle): 0.1 %ID
- tissue uptake dose at 3 h ([3]; mouse, in vivo, iv, Muscle): 0.3 %ID
- tissue uptake dose at 10 min ([3]; mouse, in vivo, iv, Pancreas): 0.59 %ID
- tissue uptake dose at 1 h ([3]; mouse, in vivo, iv, Pancreas): 0.13 %ID
- tissue uptake dose at 3 h ([3]; mouse, in vivo, iv, Pancreas): 0.08 %ID
- tissue uptake dose at 10 min [3, 6]: 0.5 %ID
- tissue uptake dose at 1 h [3, 6]: 0.13 %ID
- tissue uptake dose at 3 h [3, 6]: 0.15 %ID
- tissue uptake dose at 10 min ([3]; mouse, in vivo, iv, Spleen): 0.44 %ID
- tissue uptake dose at 1 h ([3]; mouse, in vivo, iv, Spleen): 0.1 %ID
- tissue uptake dose at 3 h ([3]; mouse, in vivo, iv, Spleen): 0.11 %ID
- tissue uptake dose at 10 min ([3]; mouse, in vivo, iv, Stomach): 0.22 %ID
- tissue uptake dose at 1 h ([3]; mouse, in vivo, iv, Stomach): 0.07 %ID
- tissue uptake dose at 3 h ([3]; mouse, in vivo, iv, Stomach): 0.07 %ID
- Clearance from the blood (in words) ([3]; mouse, in vivo, iv): rapid clearance from the blood
- Radioactivity in the kidneys (in words) ([3]; mouse, in vivo, iv): retained
Compound: O=C(O)CC[C@H](NC(=O)[C@H](CCC(=O)O)NC(=O)[C@H](CCC(=O)O)NC(=O)[C@H](CCC(=O)O)NC(=O)[C@H](CCC(=O)O)NC(=O)[C@H](CCC(=O)O)NC(=O)[C@H](CCC(=O)O)NC(=O)[C@H](CCC(=O)O)NC(=O)[C@H](CCC(=O)O)NC(=O)[C@H](CCC(=O)O)NC(=O)[C@H](CCC(=O)O)NC(=O)[C@H](CCC(=O)O)NC(=O)[C@H](CCC(=O)O)NC(=O)[C@H](CCC(=O)O)NC(=O)CN1CCN(CC(=O)O)CCN(CC(=O)O)CCN(CC(=O)O)CC1)C(=O)O [^67Ga-DOTA-(L-Glu)14, metal not drawn]
- Accumulation of radioactivity in bone (in words) ([3]; mouse, in vivo, iv): high accumulation and retention of radioactivity in bone

Compound: O.O.O=P([O-])([O-])CP(=O)([O-])[O-].[99Tc+4] [^99mTc-MDP, ^99mTc-methylenediphosphonate, reference compound]
- Biodistribution of radioactivity, Blood ([3]; i.v., 10 min after injection): 2.43 (0.10) % injected dose
- Biodistribution of radioactivity, Bone (Femur) ([3]; i.v., 10 min after injection): 20.76 (1.51) % injected dose
- Biodistribution of radioactivity, Brain ([3]; i.v., 10 min after injection): 0.06 (0.01) % injected dose
- Biodistribution of radioactivity, Heart ([3]; i.v., 10 min after injection): 0.94 (0.05) % injected dose
- Biodistribution of radioactivity, Kidney ([3]; i.v., 10 min after injection): 10.44 (1.56) % injected dose
- Biodistribution of radioactivity, Large-intestine ([3]; i.v., 10 min after injection): 0.61 (0.20) % injected dose
- Biodistribution of radioactivity, Liver ([3]; i.v., 10 min after injection): 0.61 (0.02) % injected dose
- Biodistribution of radioactivity, Lung ([3]; i.v., 10 min after injection): 1.80 (0.16) % injected dose
- Biodistribution of radioactivity, Muscle ([3]; i.v., 10 min after injection): 0.57 (0.09) % injected dose
- Biodistribution of radioactivity, Pancreas ([3]; i.v., 10 min after injection): 0.77 (0.10) % injected dose
- Biodistribution of radioactivity, Small-intestine ([3]; i.v., 10 min after injection): 0.69 (0.15) % injected dose
- Biodistribution of radioactivity, Spleen ([3]; i.v., 10 min after injection): 0.54 (0.07) % injected dose
- F/B ratio (Femur:blood ratio) ([3]; i.v., 10 min after injection): 8.54 (0.57)
- Biodistribution of radioactivity, Stomach ([3]; i.v., 10 min after injection): 0.63 (0.14) % injected dose
- Biodistribution of radioactivity, Blood ([3]; i.v., 60 min after injection): 0.23 (0.04) % injected dose
- Biodistribution of radioactivity, Bone (Femur) ([3]; i.v., 60 min after injection): 27.92 (3.25) % injected dose
- Biodistribution of radioactivity, Brain ([3]; i.v., 60 min after injection): 0.02 (0.00) % injected dose
- Biodistribution of radioactivity, Heart ([3]; i.v., 60 min after injection): 0.16 (0.02) % injected dose
- Biodistribution of radioactivity, Kidney ([3]; i.v., 60 min after injection): 2.03 (0.50) % injected dose
- Biodistribution of radioactivity, Large-intestine ([3]; i.v., 60 min after injection): 0.14 (0.04) % injected dose
- Biodistribution of radioactivity, Liver ([3]; i.v., 60 min after injection): 0.27 (0.05) % injected dose
- Biodistribution of radioactivity, Lung ([3]; i.v., 60 min after injection): 0.30 (0.03) % injected dose
- Biodistribution of radioactivity, Muscle ([3]; i.v., 60 min after injection): 0.13 (0.04) % injected dose
- Biodistribution of radioactivity, Pancreas ([3]; i.v., 60 min after injection): 0.13 (0.02) % injected dose
- Biodistribution of radioactivity, Small-intestine ([3]; i.v., 60 min after injection): 1.55 (1.68) % injected dose
- Biodistribution of radioactivity, Spleen ([3]; i.v., 60 min after injection): 0.14 (0.02) % injected dose
- F/B ratio (Femur:blood ratio) ([3]; i.v., 60 min after injection): 120.87 (9.30)
- Biodistribution of radioactivity, Stomach ([3]; i.v., 60 min after injection): 0.70 (0.37) % injected dose
- Biodistribution of radioactivity, Blood ([3]; i.v., 180 min after injection): 0.05 (0.01) % injected dose
- Biodistribution of radioactivity, Bone (Femur) ([3]; i.v., 180 min after injection): 29.03 (2.12) % injected dose
- Biodistribution of radioactivity, Brain ([3]; i.v., 180 min after injection): 0.01 (0.00) % injected dose
- Biodistribution of radioactivity, Heart ([3]; i.v., 180 min after injection): 0.07 (0.02) % injected dose
- Biodistribution of radioactivity, Kidney ([3]; i.v., 180 min after injection): 1.22 (0.36) % injected dose
- Biodistribution of radioactivity, Large-intestine ([3]; i.v., 180 min after injection): 0.23 (0.07) % injected dose
- Biodistribution of radioactivity, Liver ([3]; i.v., 180 min after injection): 0.16 (0.04) % injected dose
- Biodistribution of radioactivity, Lung ([3]; i.v., 180 min after injection): 0.10 (0.02) % injected dose
- Biodistribution of radioactivity, Muscle ([3]; i.v., 180 min after injection): 0.06 (0.01) % injected dose
- Biodistribution of radioactivity, Pancreas ([3]; i.v., 180 min after injection): 0.07 (0.01) % injected dose
- Biodistribution of radioactivity, Small-intestine ([3]; i.v., 180 min after injection): 0.26 (0.08) % injected dose
- Biodistribution of radioactivity, Spleen ([3]; i.v., 180 min after injection): 0.07 (0.01) % injected dose
- F/B ratio (Femur:blood ratio) ([3]; i.v., 180 min after injection): 546.64 (91.83)
- Biodistribution of radioactivity, Stomach ([3]; i.v., 180 min after injection): 0.29 (0.07) % injected dose
- Accumulation of radioactivity in bone (in words) ([3]; normal mice, i.v.): high accumulation and retention of radioactivity in bone
